Where two headings read alike, the source gives them in different places.
Columns and labels:
S. epidermidis = test: MIC against S. epidermidis; type: cell-based; details: Staphylococcus epidermidis, Table 4, read-out: MIC
Procedure: (§1) The MRS inhibitor 4 alone and in combination with mupirocin (mupirocin salt and 1:1 combination) were tested against a collection of Gram-positive pathogens.
(§2) The MRS inhibitor 8 was also prepared as a fusidate and mupirocinate salt and tested for antibacterial activity against Gram-positive bacteria (Table 3). […] MRSi compound 8 alone and the fusidate and mupirocin salts were active against mupirocin-resistant S. aureus and S. epidermidis and organisms such as E. faecalis that are not susceptible to mupirocin.
(§3) The MRS inhibitor 5 acetate and mupirocin salts were tested against a collection of Gram-positive bacteria.

E. faecalis = test: MIC against E. faecalis; type: cell-based; details: for Range (MIC): in µg/mL; for MIC: Enterococcus faecalis, read-out: MIC
S. hemolyticus = test: MIC against S. hemolyticus; type: cell-based; details: Table 4, read-out: MIC
Procedure: as §1, §2, §3

[1] = tested on: MRS-resistant mutants of S. aureus; test: Susceptibility (MIC) of MRS-resistant mutants of S. aureus; type: cell-based; details: Staphylococcus aureus
Procedure: MRS-resistant mutants generated in vitro in either serial passage or spontaneous resistance development studies were evaluated for susceptibility to mupirocin alone and in a 1:1 combination with MRSi compound 5.

S. aureus = test: MIC against S. aureus strains and clinical isolates (broth microdilution); type: cell-based, Staphylococcus aureus; details: for MIC / MIC50 / MIC90: Staphylococcus aureus; for MIC50: read-out: MIC50; for MIC90: read-out: MIC90
Method in brief: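 Broth microdilution per NCCLS in cation-supplemented Mueller-Hinton broth, final inoculum 5×10^5 CFU/ml from 0.5 McFarland suspensions diluted 1:10. Trays incubated aerobically overnight with quality control strains each run. Checkerboard FIC index: ≦0.5 synergy, >0.5 to 4 additive/indifferent, >4.0 antagonism.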

S. pyogenes = test: MIC against S. pyogenes; type: cell-based, Streptococcus pyogenes; details: for MIC: Streptococcus pyogenes, Table 4, read-out: MIC
Procedure: as §1
S. pyogenes is also a significant skin pathogen and 48 recent clinical isolates were tested for their susceptibility to MRSi compound 5 alone (acetate) and in combination (1:1) with mupirocin (mupirocinate).

[2] = recent clinical isolates of E. faecalis, ALL (28)
[3] = all S. aureus isolates of Table 6
[4] = oxacillin-resistant S. aureus, Oxa-R (42)
[5] = oxacillin-susceptible S. aureus, Oxa-S (20)
[6] = recent clinical isolates of S. aureus, All (62)
[7] = 48 recent clinical isolates of S. pyogenes

`C=C(F)c1sc(CNCCCNc2cc(=O)c3ccccc3[nH]2)c(C)c1Br` [MRSi Cmpd 5 acetate, N-(4-bromo-5-(1-fluorovinyl)-3-methylthiophen-2-ylmethyl)-N′-(1H-quinolin-4-one)propane-1,3-diamine] was tested, and the MIC (S. epidermidis; S. epidermidis NRS6) was 0.25 µg/mL, the MIC (S. epidermidis; S. epidermidis NRS7) was 0.06 µg/mL and the MIC (S. epidermidis; S. epidermidis NRS8) was 0.12 µg/mL. The MIC50 (E. faecalis; E. faecalis, Van-R(11)) was under 0.004 µg/mL, the MIC90 (E. faecalis; E. faecalis, Van-R(11)) was 0.015 µg/mL and the Mode (MIC) (E. faecalis; E. faecalis, Van-R(11)) was under 0.004 µg/mL. The “Range (MIC)” value (E. faecalis; E. faecalis, Van-R(11)) was <0.004-0.015, the MIC50 (E. faecalis; E. faecalis, Van-S (16)) was “≦0.004” and the MIC90 (E. faecalis; E. faecalis, Van-S (16)) was 0.008 µg/mL. For the same compound, the “Mode (MIC)” value (E. faecalis; E. faecalis, Van-S (16)) was “≦0.004”, the “Range (MIC)” value (E. faecalis; E. faecalis, Van-S (16)) was <0.004-0.015 and the MIC (E. faecalis; ATCC29212, Table 4, E. faecalis ATCC 29212) was 0.015 µg/mL. It also gave an MIC (E. faecalis; Table 4, E. faecalis 1) of 0.004 µg/mL, an MIC (E. faecalis; Table 4, E. faecalis 7) of 0.015 µg/mL and an MIC50 (E. faecalis; [2]) of under 0.004 µg/mL. For the same compound, the MIC90 (E. faecalis; [2]) was 0.015 µg/mL, the Mode (MIC) (E. faecalis; [2]) was under 0.004 µg/mL and the “Range (MIC)” value (E. faecalis; [2]) was <0.004-0.015. It also gave an MIC (S. hemolyticus; S. hemolyticus NRS50) of 0.12 µg/mL, an MIC (S. hemolyticus; S. hemolyticus NRS116) of 0.25 µg/mL and an MIC ([1]; ATCC29213, S. aureus ATCC 29213, metS wild-type) of 0.06 µg/mL. It also gave an MIC ([1]; ATCC43300, S. aureus ATCC 43300, metS wild-type) of 0.06 µg/mL, an MIC ([1]; S. aureus SP-1A2, metS A247E) of 4 µg/mL and an MIC ([1]; S. aureus SP-1B5, metS I57N) of 8 µg/mL. The MIC ([1]; S. aureus SP-2B5, metS I57N, R100S) was 16 µg/mL, the MIC ([1]; S. aureus SP-2C4, metS L213W) was 4 µg/mL and the MIC ([1]; S. aureus SP-2D4, metS I57N) was 16 µg/mL. The MIC ([1]; S. aureus SP-9B5, metS I57N, V296F) was 4 µg/mL, the MIC ([1]; S. aureus SP-21A, metS A77V) was 4 µg/mL and the MIC ([1]; S. aureus SR1, metS I57N) was 4 µg/mL. The MIC (S. aureus; ATCC29213, Table 4, S. aureus ATCC 29213, read-out: MIC) was 0.06 µg/mL, the MIC (S. aureus; ATCC43300, Table 4, S. aureus ATCC 43300 (ORSA), read-out: MIC) was 0.25 µg/mL and the MIC (S. aureus; NRS 1 / VISA, VISA, S. aureus NRS1 (Mu50), read-out: MIC) was 0.015 µg/mL. For the same compound, the MIC (S. aureus; NRS 3 / VISA, VISA, S. aureus NRS3 (HIP5827), read-out: MIC) was 0.008 µg/mL, the MIC (S. aureus; NRS 4 / VISA, VISA, S. aureus NRS4 (HIP5836), read-out: MIC) was 0.008 µg/mL and the MIC (S. aureus; NRS 18 / VISA, VISA, S. aureus NRS18 (HIP06854), read-out: MIC) was 0.03 µg/mL. It also gave an MIC (S. aureus; NRS 24 / VISA, VISA, S. aureus NRS24 (HIP09143), read-out: MIC) of 0.06 µg/mL, an MIC (S. aureus; NRS 49 / VISA, VISA, S. aureus NRS49 (Korea), read-out: MIC) of 0.008 µg/mL and an MIC (S. aureus; NRS54, Table 6, high-level mupirocin-resistant S. aureus NRS54, read-out: MIC) of 0.06 µg/mL. The MIC (S. aureus; NRS 54 / VISA, VISA, S. aureus NRS54 (Brazil), read-out: MIC) was 0.06 µg/mL, the MIC (S. aureus; NRS 56 / VISA, VISA, S. aureus NRS56 (Brazil), read-out: MIC) was 0.008 µg/mL and the MIC (S. aureus; NRS107, Table 4, S. aureus NRS107 (mupA), read-out: MIC) was at most 0.008 µg/mL. For the same compound, the MIC (S. aureus; NRS107, Table 6, high-level mupirocin-resistant S. aureus NRS107, read-out: MIC) was at most 0.008 µg/mL, the MIC (S. aureus; NRS127, Table 6, low-level mupirocin-resistant S. aureus NRS127, read-out: MIC) was 0.5 µg/mL and the MIC (S. aureus; Table 6, S. aureus (mupirocin-susceptible) 010-100, read-out: MIC) was 0.03 µg/mL. For the same compound, the MIC (S. aureus; Table 6, S. aureus (mupirocin-susceptible) 087-2789, read-out: MIC) was 0.06 µg/mL, the MIC (S. aureus; Table 6, S. aureus (mupirocin-susceptible) LZ9, read-out: MIC) was 0.03 µg/mL and the MIC (S. aureus; Table 6, S. aureus (mupirocin-susceptible) LZ10, read-out: MIC) was 0.03 µg/mL. It also gave an MIC (S. aureus; Table 6, high-level mupirocin-resistant S. aureus 010-420, read-out: MIC) of 0.03 µg/mL, an MIC (S. aureus; Table 6, high-level mupirocin-resistant S. aureus 25-670, read-out: MIC) of 0.03 µg/mL and an MIC (S. aureus; Table 6, high-level mupirocin-resistant S. aureus 87-2797, read-out: MIC) of 0.03 µg/mL. It also gave an MIC (S. aureus; Table 6, high-level mupirocin-resistant S. aureus 1079101, read-out: MIC) of 0.06 µg/mL, an MIC (S. aureus; Table 6, high-level mupirocin-resistant S. aureus LZ1, read-out: MIC) of 0.015 µg/mL and an MIC (S. aureus; Table 6, high-level mupirocin-resistant S. aureus LZ6, read-out: MIC) of 0.06 µg/mL. It also gave an MIC (S. aureus; Table 6, low-level mupirocin-resistant S. aureus 014-354, read-out: MIC) of 0.015 µg/mL, an MIC (S. aureus; Table 6, low-level mupirocin-resistant S. aureus 031-1334, read-out: MIC) of 0.015 µg/mL and an MIC (S. aureus; Table 6, low-level mupirocin-resistant S. aureus 036-1298, read-out: MIC) of at most 0.008 µg/mL. The MIC (S. aureus; Table 6, low-level mupirocin-resistant S. aureus 1081148, read-out: MIC) was 0.5 µg/mL, the MIC (S. aureus; Table 6, low-level mupirocin-resistant S. aureus LZ8, read-out: MIC) was 0.03 µg/mL and the MIC (S. aureus; Table 6, low-level mupirocin-resistant S. aureus Miles Hall, read-out: MIC) was at most 0.008 µg/mL. The MIC (S. aureus; VISA, all 8 vancomycin-intermediate S. aureus (VISA) isolates, read-out: MICs ranging) was 0.008 to 0.25 µg/mL, the MIC50 (S. aureus; [3]) was 0.03 µg/mL and the MIC90 (S. aureus; [3]) was 0.5 µg/mL. For the same compound, the MIC50 (S. aureus; [4]) was 0.03 µg/mL, the MIC90 (S. aureus; [4]) was 0.5 µg/mL and the MIC (S. aureus; oxacillin-resistant S. aureus, Oxa-R (42), read-out: MIC Mode) was 0.03 µg/mL. The MIC50 (S. aureus; [5]) was 0.03 µg/mL, the MIC90 (S. aureus; [5]) was 0.06 µg/mL and the MIC (S. aureus; oxacillin-susceptible S. aureus, Oxa-S (20), read-out: MIC Mode) was 0.06 µg/mL. For the same compound, the MIC50 (S. aureus; [6]) was 0.03 µg/mL, the MIC90 (S. aureus; [6]) was 0.12 µg/mL and the MIC (S. aureus; recent clinical isolates of S. aureus, All (62), read-out: MIC Mode) was 0.06 µg/mL. The “MIC Range” value (S. aureus; [3]) was “≦0.008-0.5 μg/mL”, the “MIC Range” value (S. aureus; [4]) was “≦0.008 to 1 μg/mL” and the “MIC Range” value (S. aureus; [5]) was “≦0.008 to 0.12 μg/mL”. The “MIC Range” value (S. aureus; [6]) was “≦0.008 to 1 μg/mL”, the MIC50 (S. pyogenes; [7]) was 0.06 µg/mL and the MIC90 (S. pyogenes; [7]) was 0.12 µg/mL. For the same compound, the Mode (MIC) (S. pyogenes; [7]) was 0.06 µg/mL, the “MIC Range” value (S. pyogenes; 48 recent clinical isolates of S. pyogenes, in µg/mL) was 0.03 to 0.25 and the MIC (S. pyogenes; ATCC19615, S. pyogenes ATCC 19615) was 0.12 µg/mL. The MIC (S. pyogenes; S. pyogenes MB000143) was 0.12 µg/mL.

Reference: patent US20040224981A1, “Antibacterial methods and compositions” (priority 2003, published 2004)
